Measured values: patent publication US7053178B2, “Synthetic peptides and kits for diagnosis of anti-phospholipid syndrome” (Yeda Research Development Co., LTD, priority 1998, dated 2006)
Where no end group is shown, it is not given here.

Tests used:
anti-β2GPI mAb ILA-3 = experiment: ELISA binding of ILA-3 mAb to phage-displayed hexapeptides; set-up: species or system human; scale not given here; settings: ILA-3 mAb 5 μg/ml, 10^9 phage particles/well, O.D. at 405 nm
Protocol: (§1) (a) Epitope Library. The hexapeptide epitope library was kindly provided by George P. Smith (University of Missouri, Columbia, MO) and was constructed by use of the phage fd-derived vector fUSE5 as described (Scott and Smith, 1990). This library consists of 2×10^8 original phage clones each containing a hexapeptide fused to the minor coat protein PIII (Scott and Smith, 1990). (b) Anti-β2GPI mAbs. The human anti-β2GPI mAbs named ILA-1, ILA-3 and G-3 (IgM), were prepared by human-human hybridoma technique from PBL of an APS patient as described (George et al., 1998). Briefly, peripheral blood cells (PBL) were separated from whole blood by Ficoll-Hypaque gradient, the PBL were exposed to pokeweed mitogen for 5 days in order to enrich the B cell population and the lymphocytes were fused with the human lymphoblastoid cell line GM4672 in the presence of polyethyleneglycol (PEG 1500). After fusion, the cells were seeded into 96-well tissue culture plates with RPMI 1640, 10% FCS and hypoxanthine-aminopterin-thymidine (HAT) selection media. New clones were detected after 4–5 weeks, grown and screened for binding to β2GPI by ELISA. All clones were subjected 4 times to limiting dilution cloning procedures in regular medium. […] The hexapeptide epitope library of section (a) above was used as described (Scott and Smith, 1990). […]

anti-β2GPI mAb ILA-1 = experiment: ELISA binding of ILA-1 mAb to phage-displayed hexapeptides; set-up: species or system human; settings: ILA-1 mAb 5 μg/ml, 10^9 phage particles/well, O.D. at 405 nm
Protocol: as §1

anti-β2GPI mAb G-3 = experiment: ELISA binding of G-3 mAb to phage-displayed hexapeptides; set-up: species or system human; scale not given here; settings: G-3 mAb 5 μg/ml, 10^9 phage particles/well, O.D. at 405 nm
Protocol: (a) Epitope Library. The hexapeptide epitope library was kindly provided by George P. Smith (University of Missouri, Columbia, MO) and was constructed by use of the phage fd-derived vector fUSE5 as described (Scott and Smith, 1990). This library consists of 2×10^8 original phage clones each containing a hexapeptide fused to the minor coat protein PIII (Scott and Smith, 1990). (b) Anti-β2GPI mAbs. The human anti-β2GPI mAbs named ILA-1, ILA-3 and G-3 (IgM), were prepared by human-human hybridoma technique from PBL of an APS patient as described (George et al., 1998). Briefly, peripheral blood cells (PBL) were separated from whole blood by Ficoll-Hypaque gradient, the PBL were exposed to pokeweed mitogen for 5 days in order to enrich the B cell population and the lymphocytes were fused with the human lymphoblastoid cell line GM4672 in the presence of polyethyleneglycol (PEG 1500). After fusion, the cells were seeded into 96-well tissue culture plates with RPMI 1640, 10% FCS and hypoxanthine-aminopterin-thymidine (HAT) selection media. New clones were detected after 4–5 weeks, grown and screened for binding to β2GPI by ELISA. All clones were subjected 4 times to limiting dilution cloning procedures in regular medium. […] The hexapeptide epitope library of section (a) above was used as described (Scott and Smith, 1990). Briefly, a library sample containing 3.8×10^9 infectious phage particles was subjected to three rounds of selection (panning) and amplification. For each selection cycle a biotinylated mAb prepared as described in section (b) above (10 μg in the first panning and 1 μg for the others) was added in a total volume of 50 μl. The phages were preincubated with the biotinylated mAb overnight at 4° C., and the reaction mixtures were then layered in 1 ml PBS on streptavidin-coated 30-mm polystyrene petri dishes (Nunc, Kamstrup, Roskilde, Denmark) for 30 min at room temperature. Unbound phages were removed by extensive washings in PBS, and the remaining phages were eluted with 0.1M glycine-HCl, pH 2.2, and neutralized with Tris 1M. […]

Substance	Binding O.D. (anti-β2GPI mAb ILA-1) [O.D.]	Binding O.D. (anti-β2GPI mAb G-3) [O.D.]	further results
KDKATF [K D K A T F]	–	–	Binding O.D. (anti-β2GPI mAb ILA-3): 1178 ± 101 O.D.
KTPRVT [K T P R V T]	1201 ± 142	–	–
LKTPRV [L K T P R V]	975 ± 72	–	–
TKLRVY [T K L R V Y]	–	954 ± 62	–
TLLRVY [T L L R V Y]	–	869 ± 71	–
TLRVYK [T L R V Y K]	–	791 ± 33	–
